# Test results: PubChem BioAssay (NCI)
# “And” between values parts separate entries of the source, which are not always exact repeats. Equal values may be shown once.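 All cell lines were grown in 96-well plates and treated with compound for 48 hours. GI50: concentration for 50% inhibition of growth. TGI marks complete inhibition of growth.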
# Experiments:
# Assay in all cases: growth of human tumour cells (NCI), 48 h
# A549 NSCLC = tested on: A549 NSCLC
# MOLT-4 leukemia = tested on: MOLT-4 leukemia
# KM12 colon = tested on: KM12 colon
# K-562 leukemia = tested on: K-562 leukemia
# SR leukemia = tested on: SR leukemia
# SNB-75 CNS = tested on: SNB-75 CNS
# HCT-15 colon = tested on: HCT-15 colon
# M14 melanoma = tested on: M14 melanoma
# SK-MEL-5 melanoma = tested on: SK-MEL-5 melanoma
# PC-3 prostate = tested on: PC-3 prostate
SMILES,GI50 (A549 NSCLC) [µM],TGI (A549 NSCLC) [µM],GI50 (MOLT-4 leukemia) [µM],TGI (MOLT-4 leukemia) [µM],GI50 (KM12 colon) [µM],TGI (KM12 colon) [µM],GI50 (K-562 leukemia) [µM],TGI (K-562 leukemia) [µM],GI50 (SR leukemia) [µM],TGI (SR leukemia) [µM],GI50 (SNB-75 CNS) [µM],TGI (SNB-75 CNS),GI50 (HCT-15 colon) [µM],TGI (HCT-15 colon),GI50 (M14 melanoma) [µM],TGI (M14 melanoma) [µM],GI50 (SK-MEL-5 melanoma) [µM],TGI (SK-MEL-5 melanoma),GI50 (PC-3 prostate) [µM],TGI (PC-3 prostate) [µM]
NC(N)=NC(N)=Nc1cc2ccccc2c2ccccc12,4.58,18.1,2.91,13.7,12.3,27.2,4.34,21.9,2.68,9.34,5.12,19.9 µM,14.9,30.5 µM,10.6,24.7,10.4,22.8 µM,7.51,24.9
COc1ccc(C2CC(=O)c3c(O)c(OC)c(OC)c(OC)c3O2)c(O)c1 (configuration not stated),0.41,28.8,1.65,29.6,0.0693,15.7,0.0378,26.2,0.0582,27,0.0625,0.858 µM,0.0498,17.8 µM,0.0834,15.4,0.0673,2.03 µM,0.0707,20.8
Cn1cc(-c2csc(-c3cccc(F)c3)n2)c2cccnc21,20.9,47.4,11.7,34.6,16,29.5,23.3,87.1,13.5,> 100,35.7,> 100 µM,14,35.7 µM,15.3,29.5,15.7,30.4 µM,16.2,39.5
COc1ccc(/C(=N/Nc2ccc([N+](=O)[O-])cc2)Sc2cc(Cl)c(C)cc2S(N)(=O)=O)cc1,5.25,18.1,5.02,16.5,3.22,9.96,4.67,15.4,2.17,5.41,2.68,6.39 µM,7.25,> 40.8 µM,5.75,15.3,0.706,7.43 µM,5.2,17.6
CCCCCCCCCCC(O)C1CCC(C2CCC(C(O)CCCCC(O)CCCCCC(O)CC3=CC(C)OC3=O)O2)O1 (configuration not stated),1.93,> 25,2.57,> 25,> 25,> 25,1.81,> 25,,> 25,> 25,> 25 µM,4.64,> 25 µM,3.76,> 25,1.83,7.33 µM and > 25 µM,2.79,> 25
CCC1(O)C(=O)OCc2c1cc1n(c2=O)Cc2cc3c(N)cccc3nc2-1 (configuration not stated),,10.8,,0.014,,20,,> 48.2,,< 0.0114,,0.251 µM,,25.2 µM,< 0.01,0.0872,,0.192 µM,,> 100
CN1C(NC(=O)c2ccc(Cl)nc2)=NS(=O)(=O)c2cc(Cl)ccc21,> 100,> 100,> 100,> 100,> 100,> 100,> 100,> 100,> 100,> 100,> 100,> 100 µM,> 100,> 100 µM,> 100,> 100,> 100,> 100 µM,> 100,> 100
O=C(O)c1cc(N=Nc2ccc([As](=O)(O)O)cc2)ccc1O,,> 100,,> 100,,> 100,,> 100,,> 100,,> 100 µM,,> 100 µM,,> 100,,> 100 µM,,> 100
C[C@]12CC[C@@H]3c4ccc(Oc5nc(N6CC6)nc(N6CC6)n5)cc4CC[C@H]3[C@@H]1CCC2=O,1.5,12.8,0.747,4.97,5.5,20,3.02,17.5,0.351,11.4,2.55,14.9 µM,2.85,18.6 µM,3.58,21.7,1.54,3.13 µM,3.46,21.8
Cn1cc(C2=C(c3cn(C)c4c(N)cccc34)C(=O)NC2=O)c2ccccc21,1.39,> 25,3.35,21.6,0.968,12.1,0.385,> 25,0.407,> 25,0.352,2.63 µM,0.743,> 25 µM,2.15,> 25,1.38,> 14.2 µM,1.37,> 25
COc1ccc2cc(C(=O)/C=C/c3cccc(OC)c3OC)ccc2c1,7.11,24.8,3.12,15.6,13,33.1,2.84,12.1,2.88,> 100,18.5,35.6 µM,3.53,15.4 µM,4.58,16.6,14.3,27.4 µM,17.4,46.1
Cn1cc(C2=C(c3cn(CCCN=C(N)N)c4ccccc34)C(=O)NC2=O)c2ccccc21,> 25,> 25,> 25,> 25,> 25,> 25,> 25,> 25,7.22,> 25,0.361,> 25 µM,> 25,> 25 µM,> 25,> 25,> 25,> 25 µM,> 23.1,> 25
Cc1cc(C2CCCCC2)n(O)c(=O)c1,1.34,> 100,,> 100,2.53,> 100,,> 100,0.66,> 100,1.96,> 100 µM and 58.1 µM,0.655,> 100 µM and 38.1 µM,1.39,,1.49,7.38 µM and 38.3 µM,3.02,> 100
C=C1C(=O)O[C@H]2[C@H]1CC/C(COC(=O)/C=C\C(=O)NCc1ccc(Cn3c(=O)sn(-c4ccc(C#N)cc4)c3=O)cc1)=C\CC[C@@]1(C)O[C@@H]21,0.916,2.42,0.84,4.82,0.9,1.84,0.707,50,0.292,50,0.581,1.33 µM,0.505,1.95 µM,0.699,1.66,0.842,1.55 µM,0.611,1.44
CN(C)C(=S)SN(C)C(=O)Nc1ccccc1,,> 100,,85.8,,53.8,,> 100,,72.3,,> 92.1 µM,,> 85.3 µM,,47.9,,46.4 µM,,> 100
Nc1nccc(-c2c(-c3ccc(F)cc3)ncn2CCCN2CCOCC2)n1,> 25,> 25,> 25,> 25,> 25,> 25,> 25,> 25,> 25,> 25,> 25,> 25 µM,> 25,> 25 µM,> 25,> 25,> 25,> 25 µM,> 25,> 25
O=c1[nH]c(=O)n(C2CC(O)C(CS)O2)cc1F (configuration not stated),,> 100,,> 100,,> 100,,> 100,,> 100,,> 100 µM,,> 100 µM,,> 100,,> 100 µM,,> 100
C[C@]12CC[C@@H]3c4ccc(O)cc4CC[C@H]3[C@@H]1CC[C@@H]2NS(=O)(=O)c1ccc(C(F)(F)F)cc1,2.05,4.98,2.61,12.7,1.87,3.57,3.16,8.69,2.43,7.5,1.67,3.6 µM,1.68,3.62 µM,1.9,3.6,1.7,3.07 µM,1.99,5.24
CC12CCCC(CC(=O)c3[nH]c4ccccc4c31)C2 (configuration not stated),2.26,> 55.9,0.492,40.9,0.641,> 54,0.345,> 45.2,0.238,66.1,0.204,21.7 µM,0.413,24.4 µM,0.399,17.3,0.669,15 µM,0.698,> 100
CC(C)CSc1nc(Nc2ccccc2)c(C#N)c(-c2ccc(F)cc2)n1,1.71,18.8,11,> 100,48.2,> 100,5.31,> 100,0.976,14,1.24,5.21 µM,9.06,> 100 µM,6,21,24.7,82.4 µM,18.1,81.2
